Values quoted from earlier work in patent US20040202640A1, “Method for topical treatment of scars with rotein Kinase C inhibitors” (priority 2003, published 2004).

Key:
[1] = tested on: phorbol ester induced omithine decarboxylase activity; details: mouse skin
calmodulin (CaM) = calmodulin (CaM) (Homo sapiens, UniProt P0DP23)

| CaM function (calmodulin (CaM)) | Structure (SMILES) | PKC inhibition (PKC) | phorbol ester induced omithine decarboxylase activity [1] |
| --- | --- | --- | --- |
| inhibits CaM function | CCCCCCCCCCCCC/C=C/[C@@H](O)[C@@H](N)CO [Sphingosine] | dose-dependently inhibits PKC | inhibit |
|  | CCCCCCCCCCCCC/C=C/[C@@H](O)[C@@H](N)COP(=O)(O)O [sphingosingosine-1-phosphate, sphingosine-1 phosphate] | more effective PKC inhibitor than sphingosine |  |
